Reference: patent publication US20240417410A1, “TRICYCLIC COMPOUNDS FOR THE TREATMENT OF CANCER” (Hoffmann-La Roche Inc., priority 2023, published 2024)

Experiments:
[1] = Single dose pharmacokinetics (PK) study in female BALB/c mice; assay type: in vivo, mouse; conditions: female, BALB/c, mouse, plasma, female BALB/c mice
Protocol: The purpose of this study was to determine the pharmacokinetics of selected compounds following single intravenous bolus or oral gavage administration in female BALB/c mice. Briefly, two groups of female BALB/c mice (available from Shanghai Lingchang Biotechnology Co., Ltd) (N=3/group) were treated with a single dose of compound intravenously at 3 mg/kg (IV) or orally at 30 mg/kg (PO). Blood samples were collected at 5 min (only for IV), […], 30 min, 1 h, 2 h, 4 h, 7 h and 24 h post-dose. Blood samples were placed on ice until centrifugation to obtain plasma samples. The concentration of compound in plasma samples was determined using LC-MS/MS method. The pharmacokinetic parameters were calculated by non-compartmental analysis.

WT KRAS-BRAF complex = WT KRAS-BRAF complex (Homo sapiens (Human), UniProt P01116+P62937); assay: WT KRAS-BRAF with CYPA interaction assay (TR-FRET); assay type: biochemical; conditions: WT KRAS
Protocol: (§1) In this example, TR-FRET was used to measure the compound or compound-CYPA dependent disruption of the KRAS G12V-BRAF complex to assess inhibition efficacy. The IC50 ratio between WT KRAS/HRAS/NRAS and KRAS G12V mutant was calculated as selective index, which indicated tolerability and safety profile. Disruption of WT KRAS/HRAS/NRAS-BRAF complex by compounds was detected respectively. In assay buffer containing 25 mM HEPES (PH-7.4,4-(2-hydroxyethyl)-1-piperazineethanesulfonic acid, Thermo, 15630080), 0.002% Tween20, 0.1% BSA, 100 mM NaCl, 5 mM MgCl2, 10 μM GMPPNP (Guanosine 5′-[β,γ-imido]triphosphate trisodium salt hydrate, Sigma, G0635), tagless CYPA and GMPPNP loaded 6His-RAS proteins, and GST-BRAF^RBD were mixed in a well of a 384-well assay plate at final concentrations of 50 nM, 6.25 nM and 1 nM, respectively. Compound was present in plate wells as a 16-point 3-fold dilution series starting at a final concentration of 10 μM and incubated for 3 hours. A mixture of MAb Anti-6His-XL665 (Cisbio, 61HISXLB) and Mab anti-GST-TB cryptate (Cisbio, 61GSTTLB) was then added at a final concentration of 6.67 nM and 0.21 nM, respectively, and the plate was incubated for an additional 1.5 hours. TR-FRET signal was read on a PHERstar FSX microplate reader (Ex320 nm, Em 665/615 nm). Compounds that facilitate disruption of the RAS-BRAF complex were identified as those eliciting a decrease in the TR-FRET ratio relative to DMSO control wells.

WT HRAS-BRAF complex = WT HRAS-BRAF complex (Homo sapiens (Human), UniProt P01112+P62937); assay: WT HRAS-BRAF with CYPA interaction assay (TR-FRET); assay type: biochemical; conditions: WT HRAS
Protocol: as §1

WT NRAS-BRAF complex = WT NRAS-BRAF complex (Homo sapiens (Human), UniProt P01111+P62937); assay: WT NRAS-BRAF with CYPA interaction assay (TR-FRET); assay type: biochemical; conditions: WT NRAS
Protocol: as §1

KRAS G12V-BRAF complex = KRAS G12V-BRAF complex (Homo sapiens (Human), UniProt P01116+P62937, G12V); assay: KRAS G12V-BRAF with CYPA interaction assay (TR-FRET, selectivity test, Example 132); assay type: biochemical
Protocol: as §1

human hepatocytes = assay: Human hepatocyte stability assay; assay type: in vitro ADME; conditions: 1 μM compound, human hepatocytes 1×10^6 cells/mL
Protocol: The hepatocyte stability assay measures the rate of disappearance of a compound from incubations with cryopreserved suspension hepatocytes from human. Positive controls, including Midazolam, Raloxifene and Dextromethorphan, are included in every experiment. Incubations consist of 1 μM tested compound and suspension of human hepatocytes (1×10^6 cells/mL) in supplemented Williams' E Medium with 10% FBS and 0.5% Penicillin-streptomycin. The hepatocyte suspension was incubated with intermittent shaking 900 rpm at 37° C., in a 5% CO2 incubator. The reaction was stopped by adding methanol containing internal standard (2 μM Tolbutamide) at 2, 10, 20, 40, 60 and 120 minutes after compound addition, depletion of the parent compound was monitored by LC-MS/MS analysis.

hERG potassium channel = hERG potassium channel (Homo sapiens (Human), UniProt Q12809); assay: hERG potassium channel assay (manual patch clamp, CHO cells); assay type: cell-based; conditions: 34° C., manual patch, CHO cells
Protocol: The purpose of the test was to screen compounds for the activity on hERG channels as a non-clinical cardiac safety evaluation.
Advanced hERG experiments were performed at near-physiological temperature (34° C.) by HEKA EPC10 manual patch system (heka elektronik, EPC10 amplifier). The CHO cells (B′SYS GmbH) stably transfected hERG channel were initially held at −80 mV, depolarized to voltages between −40 mV (100 ms) to 20 mV (500 ms) to activate the hERG outward currents, and then repolarized to −40 mV (500 ms) to record the hERG tail currents, with an interpulse interval of 15s. The recording environment included: Extracellular solution (in mM): 150 NaCl, 4 KCl, 1.2 CaCl2), 1 MgCl2 and 10 HEPES; pH adjusted to 7.2-7.4 with 5 M NaOH; Intracellular solution (in mM): 125 KCl, 10 NaCl, 5 EGTA, 10 HEPES, 0.1 Na2GTP and 5 MgATP; pH adjusted to 7.2 with 1 M KOH. Current inhibitions in the presence of more than 4 concentrations in quadruplicate were used to fit hERG IC50 by Graphpad prism V8.0.

SW620 cells (KRAS G12V) = assay: Cell viability assay (Cell Counting Kit-8, 3-day); assay type: cell-based, human; conditions: Homo sapiens, SW-620; SW620, 72 hrs incubation
How it was run: (§2)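 Cells were seeded at 5,000 cells/well (NCI-H358) or 2,000 cells/well (AGS, SW620), incubated overnight, then treated with compounds in 0.5% DMSO final for 72 hrs. CCK-8 was added and OD450 minus OD650 read after 2 hrs; IC50 came from a 4-parameter sigmoidal fit.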

AGS cells (KRAS G12D) = assay: Cell viability assay (Cell Counting Kit-8, 3-day); assay type: cell-based, human; conditions: Homo sapiens, 72 h, 72 hrs incubation
How it was run: as §2

[2] = test system: NCI-H358 cells (KRAS G12C); assay: Cell viability assay (Cell Counting Kit-8, 3-day); assay type: cell-based, human; conditions: Homo sapiens, NCI-H358, 72 h, NCI-H358, 72 hrs incubation
How it was run: as §2

[3] = test system: phosphorylation of ERK, KRAS G12C in NCI-H358 cells; assay: pERK inhibition assay; assay type: cell-based; conditions: Homo sapiens, NCI-H358, 4 h
How it was run: (§3)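 Phospho-ERK quantified by in-cell ELISA with TMB read-out at OD450 following 4 h compound exposure (final 0.5% DMSO). Cell lines were SW620 (KRAS G12V), AGS (G12D) and NCI-H358 (G12C), grown in RPMI-1640 with 10% FBS. A 4-parameter sigmoidal model gave the IC50.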

[4] = test system: phosphorylation of ERK, KRAS G12D in AGS cells; assay: pERK inhibition assay; assay type: cell-based; conditions: Homo sapiens, AGS, 4 h
How it was run: as §3

[5] = test system: phosphorylation of ERK, KRAS G12V in SW620; assay: pERK inhibition assay; assay type: cell-based; conditions: Homo sapiens, SW-620, 4 h, SW620 cells
How it was run: as §3

KRAS G12C-BRAF complex = KRAS G12C-BRAF complex (Homo sapiens (Human), UniProt P01116+P62937, G12C); assay: KRAS-BRAF with CYPA (500 nM) interaction assay (TR-FRET, Example 136); assay type: biochemical; conditions: KRAS G12C-BRAF disruption
KRAS G12C-BRAF complex, sequence (P01116-2 other isoform, or with tags, fused parts or gaps G12C): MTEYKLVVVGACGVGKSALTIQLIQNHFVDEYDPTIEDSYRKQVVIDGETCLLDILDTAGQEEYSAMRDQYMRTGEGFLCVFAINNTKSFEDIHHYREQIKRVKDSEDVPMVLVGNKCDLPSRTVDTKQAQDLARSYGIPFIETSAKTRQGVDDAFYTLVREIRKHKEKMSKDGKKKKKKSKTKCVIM
KRAS G12C-BRAF complex, sequence (P62937 whole entry): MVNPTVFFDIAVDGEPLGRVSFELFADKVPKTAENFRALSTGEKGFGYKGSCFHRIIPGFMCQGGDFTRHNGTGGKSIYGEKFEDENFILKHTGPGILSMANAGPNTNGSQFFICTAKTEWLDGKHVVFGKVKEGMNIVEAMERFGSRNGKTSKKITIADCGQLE

hERG potassium channel, sequence (Q12809 whole entry): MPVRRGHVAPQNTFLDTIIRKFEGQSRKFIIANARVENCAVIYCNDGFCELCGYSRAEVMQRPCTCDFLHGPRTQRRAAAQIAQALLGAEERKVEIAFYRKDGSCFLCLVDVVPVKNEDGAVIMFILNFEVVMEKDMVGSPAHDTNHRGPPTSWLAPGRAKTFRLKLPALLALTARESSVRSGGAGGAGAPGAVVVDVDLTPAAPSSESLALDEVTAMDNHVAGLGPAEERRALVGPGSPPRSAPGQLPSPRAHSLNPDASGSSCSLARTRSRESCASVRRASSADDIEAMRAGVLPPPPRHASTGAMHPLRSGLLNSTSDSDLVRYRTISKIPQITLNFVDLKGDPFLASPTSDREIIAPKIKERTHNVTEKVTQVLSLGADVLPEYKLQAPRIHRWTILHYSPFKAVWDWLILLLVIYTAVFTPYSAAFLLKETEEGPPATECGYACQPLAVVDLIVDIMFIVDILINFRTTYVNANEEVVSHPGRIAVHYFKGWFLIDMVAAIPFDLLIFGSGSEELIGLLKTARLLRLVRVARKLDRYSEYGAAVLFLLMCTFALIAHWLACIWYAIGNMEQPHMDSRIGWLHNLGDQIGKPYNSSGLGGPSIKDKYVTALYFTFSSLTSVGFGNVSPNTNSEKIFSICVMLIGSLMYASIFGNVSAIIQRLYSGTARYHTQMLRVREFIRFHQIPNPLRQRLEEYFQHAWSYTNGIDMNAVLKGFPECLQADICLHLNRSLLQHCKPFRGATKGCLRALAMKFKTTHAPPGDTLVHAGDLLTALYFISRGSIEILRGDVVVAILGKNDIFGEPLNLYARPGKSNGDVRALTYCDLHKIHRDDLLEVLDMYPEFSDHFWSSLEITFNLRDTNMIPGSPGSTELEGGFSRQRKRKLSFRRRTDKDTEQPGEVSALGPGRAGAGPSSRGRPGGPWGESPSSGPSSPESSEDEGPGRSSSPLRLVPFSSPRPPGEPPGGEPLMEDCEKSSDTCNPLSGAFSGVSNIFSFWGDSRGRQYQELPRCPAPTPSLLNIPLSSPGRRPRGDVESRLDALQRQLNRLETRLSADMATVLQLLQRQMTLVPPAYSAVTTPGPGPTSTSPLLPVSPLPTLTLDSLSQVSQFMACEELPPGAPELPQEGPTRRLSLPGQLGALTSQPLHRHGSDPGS
WT KRAS-BRAF complex, sequence (P01116-2 whole entry, looked up): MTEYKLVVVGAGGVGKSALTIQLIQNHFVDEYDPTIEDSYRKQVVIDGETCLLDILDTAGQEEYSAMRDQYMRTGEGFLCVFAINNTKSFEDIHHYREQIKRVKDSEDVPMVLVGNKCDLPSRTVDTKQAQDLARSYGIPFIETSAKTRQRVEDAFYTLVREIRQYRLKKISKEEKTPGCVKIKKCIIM
WT KRAS-BRAF complex, sequence (P62937 whole entry, looked up): as the sequence (P62937 whole entry) above
WT NRAS-BRAF complex, sequence (P01111 whole entry, looked up): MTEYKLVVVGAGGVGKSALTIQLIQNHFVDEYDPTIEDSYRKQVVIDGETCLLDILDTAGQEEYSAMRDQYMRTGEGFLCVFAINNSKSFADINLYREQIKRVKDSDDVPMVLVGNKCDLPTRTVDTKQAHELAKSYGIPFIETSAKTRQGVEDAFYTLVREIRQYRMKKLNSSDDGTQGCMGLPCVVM
WT NRAS-BRAF complex, sequence (P62937 whole entry, looked up): as the sequence (P62937 whole entry) above
KRAS G12V-BRAF complex, sequence (P01116-2 other isoform, or with tags, fused parts or gaps G12V): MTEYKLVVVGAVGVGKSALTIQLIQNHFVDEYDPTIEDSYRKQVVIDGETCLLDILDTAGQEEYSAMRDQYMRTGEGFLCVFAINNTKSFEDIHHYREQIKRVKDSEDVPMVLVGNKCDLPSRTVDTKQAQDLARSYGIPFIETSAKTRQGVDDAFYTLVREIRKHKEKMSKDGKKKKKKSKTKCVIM
KRAS G12V-BRAF complex, sequence (P62937 whole entry): as the sequence (P62937 whole entry) above
WT HRAS-BRAF complex, sequence (P01112 whole entry, looked up): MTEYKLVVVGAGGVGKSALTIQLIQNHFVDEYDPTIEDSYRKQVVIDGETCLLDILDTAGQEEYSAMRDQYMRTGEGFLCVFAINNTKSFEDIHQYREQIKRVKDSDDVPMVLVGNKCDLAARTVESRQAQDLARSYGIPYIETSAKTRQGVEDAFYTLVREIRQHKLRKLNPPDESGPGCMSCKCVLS
WT HRAS-BRAF complex, sequence (P62937 whole entry, looked up): as the sequence (P62937 whole entry) above

clearance ([1]; iv, 3 mg/kg) | AUC(0-t) ([1]; po, 30 mg/kg) | Cmax ([1]; po, 30 mg/kg, po, read-out: Cmax) | IC50 (WT KRAS-BRAF complex) | IC50 (WT HRAS-BRAF complex) | IC50 (WT NRAS-BRAF complex) | IC50 (KRAS G12V-BRAF complex) | Hepatic clearance (Human) (human hepatocytes) | Structure (SMILES) | IC50 (hERG potassium channel) | IC20 (hERG potassium channel; human, CHO cells stably transfected with hERG channel) | IC50 (SW620 cells (KRAS G12V)) | IC50 (AGS cells (KRAS G12D)) | IC50 [2] | IC50 [3] | IC50 [4] | IC50 [5] | IC50 (KRAS G12C-BRAF complex)
37.8 mL/min/kg | 14600 ng·h/mL | 2440 ng/mL | 18 nM | 23 nM | 19 nM | 9 nM | 9.2 mL/min/kg | CCn1c(-c2cc(N3CCN(C)CC3)cnc2[C@H](C)OC)c2c3cc(ccc31)-c1csc(n1)C[C@H](NC(=O)[C@H]1[C@H](C)[C@@H]1C)C(=O)N1CCC[C@H](N1)C(=O)OCC(C)(C)C2 [Example A252, reference compound] | 11 µM | 3000 nM |  |  |  |  |  |  | 
 |  |  |  |  |  |  |  | CO[C@@H](C)c1ncc(N2CCN(C)CC2)cc1-c1c2c3cc(cc4c3n1CC(F)(F)C4)-c1csc(n1)C[C@H](NC(=O)[C@H]1C[C@@H]1C)C(=O)N1CCC[C@H](N1)C(=O)OCC(C)(C)C2 (atropisomer, axis not shown; (M)) [Example 18, (1S,2S)-N-[(7S,13S)-23,23-difluoro-(20M)-20-[2-[(1S)-1-methoxyethyl]-5-(4-methylpiperazin-1-yl)-3-pyridyl]-17,17-dimethyl-8,14-dioxo-15-oxa-4-thia-9,21,30,31-tetrazahexacyclo[23.3.1.1^2,5.1^9,13.0^19,27.0^21,26]hentriaconta-1 (28),2,5 (31),19,25 (29),26-hexaen-7-yl]-2-methyl-cyclopropanecarboxamide] |  |  | 2.9 nM | 54.5 nM | 18 nM | 16.8 nM | 7.7 nM | 7.4 nM | 14.7 nM
